Data reported in paper PMC7822874, “Chemoprotective antimalarials identified through quantitative high-throughput screening of Plasmodium blood and liver stage parasites” (Scientific Reports, 2021).

Key:
[1] = system: Plasmodium falciparum Dd2 asexual blood stage parasites; test: microbe, parasite or virus in culture; parameters: species or system Plasmodium falciparum Dd2 in human erythrocytes; single determination (one 11-point concentration-response curve); conditions: Plasmodium falciparum, DD2, Erythrocyte, 72 h; read-out: AC50
in vitro = conditions: human
[2] = HepG2-A16-CD81EGFP cells, uninfected

SMILES	AC50 [1] [µM]	viability at 48 h, 1 µM (in vitro; [2]) [%]	viability at 48 h, 3 µM (in vitro; [2]) [%]	viability at 66 h (in vitro; [2]) [%]	other results
CCOC(=O)c1c(CNc2ccncc2)n(C)c2cc(Br)c(O)cc12 [MLS000714612-01]	2.66	90	86	–	–
O=C(O)c1ccc(N/N=C/c2cn(-c3ccccc3)nc2-c2cccs2)cc1 [MLS000759699-01]	2.66	112	103	–	–
Cc1c(O)c(CN2CCCCC2)cc2c1oc(=O)c1ccccc12 [MLS000551544-01]	0.75	–	–	95.3	–
Cc1c(O)c(CN2CCCC2)cc2c1oc(=O)c1ccccc12 [MLS000081529-01]	2.66	108	102	–	–
Clc1ccc2c(NCc3ccccn3)ccnc2c1 [MLS001178012-01]	2.11	–	–	107	–
CCOC(=O)CC(=O)CSc1nc2ccccc2c(=O)n1-c1ccc(C(=O)N2CCOCC2)cc1 [MLS000095558-01]	13.3	87	87	–	–
Cc1cc(N2CCN(C)CC2)nc2ccc(NC(=O)c3ccc(Br)o3)cc12 [MLS000086536-01]	6.68	104	104	–	–
Oc1c2c(nc3ccc(Br)cc13)CCCC2 [MLS000074180-01]	6.68	100	98	–	–
O=C1C(c2ccccc2)=[N+](O)c2ccccc21 [MLS001241052-01]	1.88	–	–	97.9	–
CCOC(=O)c1cnc2cc(OCC(C)C)c(OCC(C)C)cc2c1O [NCGC00167562-01]	0.944	83	82	–	–
CCn1c2c(c(=N)c3ccccc31)CCC2 [MLS001047391-01]	6.68	–	–	97.3	–
CCN(CC)CCN1C(=O)c2ccccc2NC1c1ccc(C)cc1 (centres unmarked) [MLS000558946-01]	2.99	98	104	–	–
CCOC(=O)c1cnc2ccc(OC)cc2c1Nc1ccc(N2CCN(C)CC2)cc1 [MLS001164177-01]	1.68	98	94	–	–
CCC(=O)N1CCc2cc(Br)cc(S(=O)(=O)N3CCCC(C(=O)NC(C)(C)C)C3)c21 (centres unmarked) [MLS000937025-01]	3.35	98.3	–	–	viability at 48 h (in vitro; [2]): 98.3%
CCCNC(=O)c1ccc(N2CCC3(CC2)CC(c2cccc(Br)c2)=NO3)c(NC(=O)c2ccco2)c1 [MLS001074397-01]	2.99	118	104	–	–
Cc1cc(O)c(CN2CC=C(c3ccccc3)CC2)cc1C(C)C [MLS001176749-01]	0.335	–	–	–	viability at 48 h, 1 µM (in vitro): 106%; viability at 48 h, 3 µM (in vitro): 105%
COc1cc(C(=O)Nc2ccc3nc(N4CCN(C)CC4)cc(C)c3c2)cc(OC)c1OC [MLS001197839-01]	3.35	101	103	–	–
CCCCNc1nc2sc3c(c2c(=O)n1-c1cccc(Cl)c1)CCN(C)C3 [MLS000762857-01]	9.44	106	–	–	viability at 48 h (in vitro; [2]): 106%
CN(C)c1cc[n+](CC(=O)c2cccs2)cc1 [MLS001207444-01]	6.68	–	–	101	–
Oc1ccccc1Nc1nc(-c2ccccc2O)nc2ccccc12 [MLS001164904-01]	0.944	–	–	101	–
CCOc1cc(C(=O)N2CCC(CC3CC(c4cccc(Br)c4)=NO3)(C(=O)NCC3CCCCC3)CC2)cc(OCC)c1OCC (centres unmarked) [MLS001074456-01]	1.68	106	103	–	–
COc1ccc([S+](=O)([O-])Nc2ccc(C)n(CC(=O)Nc3ccccc3)c2=O)cc1 [NCGC00430934-01]	2.66	–	–	103	–
O=C1C=C(O)C=CC1=CNNc1ccnc2cc(Cl)ccc12 [MLS000759655-01]	0.596	101	–	–	viability at 48 h (in vitro; [2]): 101%
Clc1ccc(-c2nnc(N3CCCC3)nn2)cc1 [MLS000038815-01]	0.531	–	–	102	–
CC(C)Oc1ccc(C(CCNCc2ccc(O)cc2)c2ccccc2)cc1 (centres unmarked) [MLS001164341-01]	0.668	–	–	102	–
C=CC1CN2CCC1CC2C(OC(C)=O)c1ccnc2ccc(OC)cc12 (centres unmarked) [MLS000851200-01]	1.68	–	–	–	viability at 66 h (in vitro): 99.9%
CCOC(=O)c1nc2cc3n(c(CC(C)C)c-2c1C)CC(C)=C3C [MLS000594428-01]	7.5	108	–	–	viability at 48 h (in vitro; [2]): 108%
Oc1cc2c(cc1CN1CCN(c3cccc(C(F)(F)F)c3)CC1)CCC2 [MLS000570420-01]	0.944	102	101	–	–
O=C1c2ccccc2C2=Nc3ccccc3SC(c3ccccc3F)C12 (centres unmarked) [MLS000562246-01]	4.73	99	95	–	–
